Key:
Test in all cases: relative viability (nuclei count vs DMSO), 5 days (fraction); higher = more cells survive
NCI-H1793 = test system: NCI-H1793
In short: (§1)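 Cells from lung cancer lines were seeded into 1536-well plates and, one day later, dosed by pin tool. Treatments were either a single drug or a fixed dose of an anchor drug with five library-drug doses (not always all listed) in √10 steps. After 5 days, nuclei were stained in a one-step fixation (final 0.05% Triton X-100, 1% formaldehyde, 1 ug/ml Hoechst) and counted on 4× images, and relative viability is the treated-to-vehicle nuclei ratio, as the median of duplicate plates.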

SW 1573 = test system: SW 1573
In short: as §1

NCI-H1355 = test system: NCI-H1355
In short: as §1

NCI-H2347 = test system: NCI-H2347
In short: as §1

PC-3 [JPC-3] = test system: PC-3 [JPC-3]
In short: as §1

PC-14 = test system: PC-14
In short: as §1

NCI-H647 = test system: NCI-H647
In short: as §1

NCI-H520 = test system: NCI-H520
In short: as §1

NCI-H727 = test system: NCI-H727
In short: as §1

LCLC-97TM1 = test system: LCLC-97TM1
In short: as §1

NCI-H1993 = test system: NCI-H1993
In short: as §1

NCI-H460 = test system: NCI-H460
In short: as §1

NCI-H1666 = test system: NCI-H1666
In short: as §1

NCI-H1975 = test system: NCI-H1975
In short: as §1

NCI-H2009 = test system: NCI-H2009
In short: as §1

SK-LU-1 = test system: SK-LU-1
In short: as §1

EMC-BAC-2 = test system: EMC-BAC-2
In short: as §1

NCI-H1755 = test system: NCI-H1755
In short: as §1

NCI-H2170 = test system: NCI-H2170
In short: as §1

NCI-H2126 = test system: NCI-H2126
In short: as §1

ABC-1 = test system: ABC-1
In short: as §1

NCI-H1944 = test system: NCI-H1944
In short: as §1

NCI-H441 = test system: NCI-H441
In short: as §1

O=c1[nH]c2ccccc2n1C1CCN(CCCC(c2ccc(F)cc2)c2ccc(F)cc2)CC1 [Pimozide] + N=C(N)NC(=N)NCCc1ccccc1 [Phenformin] (partner 250 µM)
relative viability (NCI-H1793; first compound 0.253 µM): 0.29 | relative viability (NCI-H1793; first compound 0.8 µM): 0.226 | relative viability (NCI-H1793; first compound 2.53 µM): 0.237 | relative viability (NCI-H1793; first compound 8 µM): 0.356 | relative viability (SW 1573; first compound 0.08 µM): 0.348 | relative viability (SW 1573; first compound 0.253 µM): 0.309 | relative viability (SW 1573; first compound 0.8 µM): 0.341 | relative viability (SW 1573; first compound 2.53 µM): 0.377 | relative viability (SW 1573; first compound 8 µM): 0.388 | relative viability (NCI-H1355; first compound 0.08 µM): 0.45 | relative viability (NCI-H1355; first compound 0.253 µM): 0.435 | relative viability (NCI-H1355; first compound 0.8 µM): 0.437 | relative viability (NCI-H1355; first compound 2.53 µM): 0.417 | relative viability (NCI-H1355; first compound 8 µM): 0.404 | relative viability (NCI-H2347; first compound 0.253 µM): 0.474 | relative viability (NCI-H2347; first compound 0.8 µM): 0.374 | relative viability (NCI-H2347; first compound 2.53 µM): 0.451 | relative viability (NCI-H2347; first compound 8 µM): 0.269 | relative viability (PC-3 [JPC-3]; first compound 0.08 µM): 0.357 | relative viability (PC-3 [JPC-3]; first compound 0.253 µM): 0.469 | relative viability (PC-3 [JPC-3]; first compound 0.8 µM): 0.451 | relative viability (PC-3 [JPC-3]; first compound 2.53 µM): 0.486 | relative viability (PC-3 [JPC-3]; first compound 8 µM): 0.403 | relative viability (PC-14; first compound 0.253 µM): 0.451 | relative viability (PC-14; first compound 2.53 µM): 0.4 | relative viability (PC-14; first compound 8 µM): 0.517 | relative viability (NCI-H647; first compound 0.08 µM): 0.59 | relative viability (NCI-H647; first compound 0.253 µM): 0.497 | relative viability (NCI-H647; first compound 0.8 µM): 0.435 | relative viability (NCI-H647; first compound 2.53 µM): 0.452 | relative viability (NCI-H647; first compound 8 µM): 0.527 | relative viability (NCI-H520; first compound 0.08 µM): 0.724 | relative viability (NCI-H520; first compound 0.253 µM): 0.615 | relative viability (NCI-H520; first compound 0.8 µM): 0.613 | relative viability (NCI-H520; first compound 2.53 µM): 0.623 | relative viability (NCI-H520; first compound 8 µM): 0.678 | relative viability (NCI-H727; first compound 0.08 µM): 0.467 | relative viability (NCI-H727; first compound 0.253 µM): 0.641 | relative viability (NCI-H727; first compound 0.8 µM): 0.448 | relative viability (NCI-H727; first compound 2.53 µM): 0.684 | relative viability (NCI-H727; first compound 8 µM): 0.577 | relative viability (LCLC-97TM1; first compound 0.08 µM): 0.487 | relative viability (LCLC-97TM1; first compound 0.253 µM): 0.403 | relative viability (LCLC-97TM1; first compound 0.8 µM): 0.356 | relative viability (LCLC-97TM1; first compound 2.53 µM): 0.418 | relative viability (LCLC-97TM1; first compound 8 µM): 0.413 | relative viability (NCI-H1993; first compound 0.08 µM): 0.477 | relative viability (NCI-H1993; first compound 0.253 µM): 0.509 | relative viability (NCI-H1993; first compound 0.8 µM): 0.455 | relative viability (NCI-H1993; first compound 2.53 µM): 0.522 | relative viability (NCI-H1993; first compound 8 µM): 0.49 | relative viability (NCI-H460; first compound 0.08 µM): 0.556 | relative viability (NCI-H460; first compound 0.253 µM): 0.507 | relative viability (NCI-H460; first compound 0.8 µM): 0.501 | relative viability (NCI-H460; first compound 2.53 µM): 0.516 | relative viability (NCI-H460; first compound 8 µM): 0.492 | relative viability (NCI-H1666; first compound 0.08 µM): 0.608 | relative viability (NCI-H1666; first compound 0.253 µM): 0.5 | relative viability (NCI-H1666; first compound 0.8 µM): 0.597 | relative viability (NCI-H1666; first compound 2.53 µM): 0.555 | relative viability (NCI-H1666; first compound 8 µM): 0.513 | relative viability (NCI-H1975; first compound 0.08 µM): 0.427 | relative viability (NCI-H1975; first compound 0.253 µM): 0.395 | relative viability (NCI-H1975; first compound 0.8 µM): 0.414 | relative viability (NCI-H1975; first compound 2.53 µM): 0.454 | relative viability (NCI-H1975; first compound 8 µM): 0.391 | relative viability (NCI-H2009; first compound 0.08 µM): 0.476 | relative viability (NCI-H2009; first compound 0.253 µM): 0.479 | relative viability (NCI-H2009; first compound 0.8 µM): 0.507 | relative viability (NCI-H2009; first compound 2.53 µM): 0.46 | relative viability (NCI-H2009; first compound 8 µM): 0.391 | relative viability (SK-LU-1; first compound 0.08 µM): 0.559 | relative viability (SK-LU-1; first compound 0.253 µM): 0.533 | relative viability (SK-LU-1; first compound 0.8 µM): 0.558 | relative viability (SK-LU-1; first compound 2.53 µM): 0.532 | relative viability (SK-LU-1; first compound 8 µM): 0.415 | relative viability (EMC-BAC-2; first compound 0.08 µM): 0.561 | relative viability (EMC-BAC-2; first compound 0.253 µM): 0.515 | relative viability (EMC-BAC-2; first compound 0.8 µM): 0.483 | relative viability (EMC-BAC-2; first compound 2.53 µM): 0.486 | relative viability (EMC-BAC-2; first compound 8 µM): 0.519 | relative viability (NCI-H1755; first compound 0.08 µM): 0.585 | relative viability (NCI-H1755; first compound 0.253 µM): 0.587 | relative viability (NCI-H1755; first compound 0.8 µM): 0.574 | relative viability (NCI-H1755; first compound 2.53 µM): 0.64 | relative viability (NCI-H1755; first compound 8 µM): 0.538 | relative viability (NCI-H2170; first compound 0.08 µM): 0.411 | relative viability (NCI-H2170; first compound 0.253 µM): 0.383 | relative viability (NCI-H2170; first compound 0.8 µM): 0.44 | relative viability (NCI-H2170; first compound 2.53 µM): 0.399 | relative viability (NCI-H2170; first compound 8 µM): 0.367 | relative viability (NCI-H2126; first compound 0.08 µM): 0.513 | relative viability (NCI-H2126; first compound 0.253 µM): 0.519 | relative viability (NCI-H2126; first compound 0.8 µM): 0.464 | relative viability (NCI-H2126; first compound 2.53 µM): 0.525 | relative viability (NCI-H2126; first compound 8 µM): 0.584 | relative viability (ABC-1; first compound 0.08 µM): 0.265 | relative viability (ABC-1; first compound 0.253 µM): 0.258 | relative viability (ABC-1; first compound 0.8 µM): 0.227 | relative viability (ABC-1; first compound 2.53 µM): 0.287 | relative viability (ABC-1; first compound 8 µM): 0.209 | relative viability (NCI-H1944; first compound 0.08 µM): 0.191 | relative viability (NCI-H1944; first compound 0.253 µM): 0.197 | relative viability (NCI-H1944; first compound 0.8 µM): 0.187 | relative viability (NCI-H1944; first compound 2.53 µM): 0.184 | relative viability (NCI-H1944; first compound 8 µM): 0.198 | relative viability (NCI-H441; first compound 0.08 µM): 0.96 | relative viability (NCI-H441; first compound 0.253 µM): 0.758 | relative viability (NCI-H441; first compound 0.8 µM): 0.767 | relative viability (NCI-H441; first compound 2.53 µM): 0.783 | relative viability (NCI-H441; first compound 8 µM): 0.825
